Patent US11079383B2, “Diagnosis and monitoring treatment of prostate cancer” (THE GENERAL HOSPITAL CORPORATION, priority 2012, dated 2021)
“Also recorded” adds a separate entry of the source.

Columns and labels:
[1] = system: LNCaP cells; assay: Multiparameter single cell immunofluorescence assay for AR signaling (PSA/PSMA) in LNCaP cells; format: cell-based, human; settings: androgen-starved LNCaP cells (3 days 10% charcoal-stripped serum) treated with 1 nM R1881
From the text: To achieve multiparameter single cell analysis of AR activity, an automated fluorescence microscopy scanning platform was adapted to distinctly and specifically measure four fluorescent emission spectra simultaneously. Secondary fluorophores and optical band pass filters were selected to avoid “cross-talk” between the multiple fluorescent signals that are closely located on the electromagnetic spectrum, while maximizing signal intensity. The disclosed assay for quantitative measurement of signal intensity profiles for cells stained with antibodies against PSA and PSMA was developed using a model cell system (LNCaP). […]
(§1) Immunofluorescence Staining and Automated Fluorescence Microscopy To establish and validate the immunofluorescence single cell AR signature, LNCaP cells were cultured in media containing 10% charcoal-stripped serum for 3 days followed by treatment with 1 nM R1881 or 10 μM bicalutamide for 24 hours. […] An automated upright fluorescence microscopy scanning system (BioView) fitted with a precision motorized stage and xenon arc lamp (Lumen 2000, Prior Scientific) was used to comprehensively image each CTC-chip under 10× magnification in seven z-planes. Due to inherent auto fluorescence of biological samples that can interfere with the specificity of stains in the green spectra, the negative control marker, CD45, was paired with the Alexa Fluor 488 secondary antibody. […]

[2] = system: CTCs from patients with CRPC; assay: AR signaling phenotypes in CTCs from CRPC patients before and after second line hormonal therapy (HBCTC-Chip); format: in vivo, human; settings: for Effect of second line hormonal treatment on CTC numbers and AR phenotypes: CRPC patients, ketoconazole N=1, bicalutamide N=2, abiraterone acetate N=13
Method: (§2) Patients and Clinical Specimens Patients with metastatic prostate cancer receiving treatment at the Massachusetts General Hospital (MGH) were recruited according to an institutional review board (IRB) approved protocol. A total of 21 prostate cancer patients donated 10-20 mL of blood on one or more occasions for CTC analysis. A total of 21 male patients with no known diagnosis of cancer were recruited during routine visits to the MGH outpatient internal medicine clinic according to a separate IRB approved protocol. CTC capture using the ^HBCTC-Chip was performed as described (Stott S L, et al. Proc Natl Acad Sci USA 2010; 107: 18392-7), with anti-EpCAM mediated capture of cells, followed by combined staining with anti-PSA, anti-PSMA, and anti-CD45 antibodies (described in detail below).
HBCTC-Chip Blood Processing All specimens were collected into Vacutainer (Becton-Dickson) tubes containing the anticoagulant EDTA and were processed through the ^HBCTC-Chip within 6 hours of blood draw. Samples were run on the previously described microfluidic processing machine (Stott S L, et al. Proc Natl Acad Sci USA 2010; 107: 18392-7). Briefly, a 5 mL aliquot of blood was placed in an airtight conical tube on a rocker assembly, and 2-4 mL of blood were pneumatically driven through the chip at a flow rate of 1-1.5 mL/hour. Following processing, the ^HBCTC-Chip was flushed with 2.5 mL of PBS at 2.5 mL/hour to remove nonspecifically bound cells. Isolated CTCs were then subjected to immunofluorescence staining, as described below.
Immunofluorescence Staining and Automated Fluorescence Microscopy To establish and validate the immunofluorescence single cell AR signature, LNCaP cells were cultured in media containing 10% charcoal-stripped serum for 3 days followed by treatment with 1 nM R1881 or 10 μM bicalutamide for 24 hours. Once the assays were validated in cultured cells, they were applied to cells spiked into whole blood and isolated on the CTC-Chip, to healthy donor blood samples to establish the signal intensity threshold for detection, and ultimately on primary patient samples processed through the Chip. Cells captured on the ^HBCTC-chip were fixed with 4% formaldehyde and permeabilized with 1% NP-40 in PBS. Immunofluorescence staining was performed using a rabbit polyclonal anti-PSA antibody (DAKO), a mouse monoclonal IgG1 anti-PSMA antibody (J591; N. Bander), and a mouse monoclonal IgG2a anti-CD45 antibody (Abcam), followed by appropriately matched secondary antibodies conjugated with DyLight 649 (Jackson ImmunoResearch), Alexa Fluor 555 (Invitrogen), and Alexa Fluor 488 (Invitrogen). Nuclei were stained with DAPI. An automated upright fluorescence microscopy scanning system (BioView) fitted with a precision motorized stage and xenon arc lamp (Lumen 2000, Prior Scientific) was used to comprehensively image each CTC-chip under 10× magnification in seven z-planes. Due to inherent auto fluorescence of biological samples that can interfere with the specificity of stains in the green spectra, the negative control marker, CD45, was paired with the Alexa Fluor 488 secondary antibody. This choice reduced the sensitivity of the staining assay (potentially more false negatives), but lessened the risk of false positives through natural autofluorescence. Conversely, PSA, the highest affinity antibody tested (and subsequently strongest fluorescent signal) was placed in the Cy5 channel, where the quantum efficiency of traditional monochrome CCD sensors is reduced. To successfully achieve distinct, non-overlapping fluorescent signals in four colors while maximizing the fluorescent intensity output, modified Magnetron sputter-coated filter sets were selected for the Cy3 and Cy5 spectra (Chroma). Additional filter sets for the DAPI and FITC channel were used and exposure times were optimized. All samples were subsequently imaged at predetermined exposure times. […]

[3] = system: metastatic CRPC; settings: men with metastatic CRPC who have previously received chemotherapy; cited from earlier work
[4] = system: CTCs from patients with castration-sensitive prostate cancer; assay: AR signaling phenotypes in CTCs from patients with castration-sensitive metastatic prostate cancer before and after ADT (HBCTC-Chip); format: in vivo, human; settings: for Change of CTC AR signaling phenotype after ADT: treatment-naive castration-sensitive metastatic prostate cancer patients with detectable CTCs
Method: as §2
HBCTC-Chip Blood Processing All specimens were collected into Vacutainer (Becton-Dickson) tubes containing the anticoagulant EDTA and were processed through the ^HBCTC-Chip within 6 hours of blood draw. Samples were run on the previously described microfluidic processing machine (Stott S L, et al. Proc Natl Acad Sci USA 2010; 107: 18392-7). Briefly, a 5 mL aliquot of blood was placed in an airtight conical tube on a rocker assembly, and 2-4 mL of blood were pneumatically driven through the chip at a flow rate of 1-1.5 mL/hour. […]
as §1

C[C@]1(O)CC[C@H]2[C@@H]3CCC4=CC(=O)CCC4=C3C=C[C@@]21C [R1881]
AR signaling phenotype (PSA/PSMA signal intensity profile) over time [1]: time-dependent progression from an initial “AR-off” (PSA−/PSMA+) to an intermediate “AR-mixed” (PSA+/PSMA+) phenotype, and finally to an “AR-on” (PSA+/PSMA−) pattern

CC(=O)O[C@H]1CC[C@@]2(C)C(=CC[C@@H]3[C@@H]2CC[C@]2(C)C(c4cccnc4)=CC[C@@H]32)C1 [abiraterone acetate]
CRPC patients with a stable percentage of AR-on CTCs after therapy ([2]; 6 of 13 patients): 46%
Effect of second line hormonal treatment on CTC numbers and AR phenotypes [2]: varying effects on CTC numbers and AR phenotypes
Change in proportion of PSA+/PSMA− AR-on CTCs in an individual CRPC patient ([2]; single patients, after initiation of therapy (FIG. 4A, FIG. 4C)): a decrease in the proportion of PSA+/PSMA− “AR-on” CTCs; also recorded: Increase in the proportion of PSA+/PSMA− “AR-on” CTCs
CRPC patients with ≥50% decline in the percentage of AR-on (PSA+/PSMA−) CTCs ([2]; within 2-5 weeks of therapy, 4 of 13 patients): 31%
CRPC patients with ≥50% increase in the percentage of AR-on CTCs ([2]; within the first 2-5 weeks of therapy, 3 of 13 patients): 23%
Overall survival [3]: increases overall survival

CC(=O)N1CCN(c2ccc(OCC3COC(Cn4ccnc4)(c4ccc(Cl)cc4Cl)O3)cc2)CC1 (centres unmarked) [ketoconazole]
Effect of second line hormonal treatment on CTC numbers and AR phenotypes [2]: varying effects on CTC numbers and AR phenotypes

CCNC(=O)[C@@H]1CCCN1C(=O)[C@H](CCCNC(=N)N)NC(=O)[C@H](CC(C)C)NC(=O)[C@@H](CC(C)C)NC(=O)[C@H](Cc1ccc(O)cc1)NC(=O)[C@H](CO)NC(=O)[C@H](Cc1c[nH]c2ccccc12)NC(=O)[C@H](Cc1c[nH]cn1)NC(=O)[C@@H]1CCC(=O)N1 [leuprolide]
Change of CTC AR signaling phenotype after ADT [4]: transformation of CTCs from the “AR-on” (PSA+/PSMA−) phenotype to the “AR-off” (PSA−/PSMA+) phenotype
Change of CTC AR signaling phenotype after ADT ([4]; listed as ADT): transformation of the majority of CTCs from the “AR-on” to the “AR-off” phenotype within one month
Presence of CTCs after initiation of ADT ([4]; treatment-naive metastatic prostate cancer patients with detectable CTCs): complete disappearance of CTCs by 3 months
